Drawing on the METLIN SMRT retention time set (Domingo-Almenara et al. 2019), this text covers RP-LC retention time for 59 compounds.

Each structure is given as a SMILES string.

This data set can be described thus: gradient 5% acetonitrile 3 min, to 50% in 2 min, to 85% in 15 min, held 3 min, 100 µL/min. The conditions noted are these: column: Zorbax Extend-C18 2.1 x 50 mm; eluents: water / acetonitrile, 0.1% formic acid. In a few lines:
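Standards, all pure, were combined into mixtures of ~100 molecules and run at 100 μL/min on a Zorbax Extend-C18 column (2.1 × 50 mm, 1.8 μm) with water and acetonitrile, each containing 0.1% formic acid. A coupled quadrupole time-of-flight mass spectrometer operated in positive and negative ionization mode. Retention time values come from computationally picked adduct peaks, each inspected manually.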
`COC(=O)c1ccc2c(=O)n(-c3ccc(C)c(C)c3)c(N3CCN(c4ccccn4)CC3)nc2c1` displayed an RP-LC retention time of 756 s.

As for `CCc1cccc(NC(=O)C2CCCN(c3nnc(C)c4c(C)n(-c5ccccc5)nc34)C2)c1` (centres undefined), the RP-LC retention time was 815 s.

`O=C(CCNc1cnc2cnccn12)Nc1ccc2c(c1)OCO2` had an RP-LC retention time of 570 s.

`Cc1cc(NC(=O)Cn2ccn3nc(-c4ccc(F)cc4)c(CO)c3c2=O)n[nH]1` came in with an RP-LC retention time of 666 s.

The compound `COc1ccc(CNC(=O)C2CCN(c3nnc4cccc(C)n34)CC2)cc1` registered an RP-LC retention time of 646 s.

As for `CC(C)Cn1c(=O)c(N2CCN(C(=O)NCc3ccco3)CC2)nc2ccncc21`, the RP-LC retention time is 616 s.

For the compound `CC(C)Cn1c(=O)c(N2CCN(C(=O)Cc3ccsc3)CC2)nc2ccncc21`, the RP-LC retention time was found to be 653 s.

For the compound `COc1ccc(N2CCN(C(=O)CCN3C(=O)C4C5C=CC(C5)C4C3=O)CC2)cc1` (centres undefined), the RP-LC retention time came to 650 s.

`COc1ccc(CC(=O)NC(CC(C)C)C(=O)Nc2nc3ccccc3[nH]2)c(Cl)c1` (centres undefined) gave an RP-LC retention time of 784 s.

Turning to `CCCCNC(=O)C1CCN(Cc2cc3ccccc3n2Cc2ccccc2Cl)CC1`, the RP-LC retention time came out at 788 s.

In turn, `O=C(C1CCN(c2nc3ccc(-c4cccnc4)nc3s2)CC1)N1CCOCC1` registered an RP-LC retention time of 592 s.

As for `O=C(Cn1ncc2c(N3CCN(c4ccccn4)CC3)ncnc21)Nc1ccc(C(F)(F)F)cc1`, the RP-LC retention time stood at 669 s.

Compound `CCCN(CCC)C1Cc2cc(OC)c(OC)cc2C1` returned an RP-LC retention time of 680 s.

On to `COc1ccc(CNS(=O)(=O)c2cn(C(C)C)c3ncccc23)cc1`, for which the RP-LC retention time is 841 s.

For `COc1ccccc1C(=O)Nc1ccc2c(c1)Sc1ncccc1C(=O)N2C`, the RP-LC retention time was 810 s.

The compound `CCN1C(=O)c2cccnc2Sc2cc(CNC(=O)c3cccc(OC)c3)ccc21` came in with an RP-LC retention time of 762 s.

On to `COc1ccc(-c2nnc(CC(=O)NC3CC3)o2)cc1`, for which the RP-LC retention time was determined as 640 s.

Take `CCOC(=O)N1CCN(c2nc(F)c(F)c(S(=O)(=O)CCNc3ccccc3)c2F)CC1`: the RP-LC retention time amounted to 1010 s.

`CC1(C(=O)NCc2ccc(F)cc2)CCCN(C(=O)Nc2ccc3c(c2)OCCO3)C1` (centres undefined): the RP-LC retention time came to 792 s.

`Cc1cc(C)n2nc(SCC(=O)NCc3ccccc3Cl)nc2n1` gave an RP-LC retention time of 698 s.

Turning to `COCc1cc2nn(CC(=O)Nc3ccc(F)cc3)c(=O)n2c(-c2ccccc2)n1`, the RP-LC retention time came to 903 s.

Consider `CCN1C(=O)COc2ccc(-c3nc(NC(=O)c4ccccc4)sc3C)cc21`, for which the RP-LC retention time is 1030 s.

In the case of `CC(C)CNC(=O)c1nn(-c2ccc(F)cc2)nc1CO`, the RP-LC retention time was found to be 888 s.

As for `CC(C)(C)NC(=O)c1ccc(C(=O)NC(C)(C)C)cc1`, the RP-LC retention time amounted to 840 s.

The compound `NC(=O)c1ccccc1NC(=O)NC1CC(=O)N(c2ccc(Cl)cc2)C1` (centres undefined) returned an RP-LC retention time of 667 s.

Turning to `Cn1cnc(S(=O)(=O)N2CCC(C(=O)NC3CCCCC3)CC2)c1`, the RP-LC retention time is 659 s.

`Cc1ccc(-c2nnc(-c3nn(C)c4c3CN(S(=O)(=O)c3ccccc3Cl)CC4)o2)cc1` had an RP-LC retention time of 1020 s.

`CCc1noc(-c2cccnc2N2CCCN(Cc3cc(F)cc(F)c3)CC2)n1`: the RP-LC retention time amounted to 673 s.

As for `Cc1ccc(NC(=O)C2CCN(S(C)(=O)=O)c3ccccc3O2)cc1C` (centres undefined), the RP-LC retention time was 945 s.

The compound `O=C(NCCCN1CCc2ccccc2C1)c1noc2c1CCCC2` registered an RP-LC retention time of 659 s.

Compound `COc1cccc(CNC2=NCCNC23CCN(S(=O)(=O)c2ccc(C(C)C)cc2)CC3)c1` yielded an RP-LC retention time of 836 s.

Compound `CC(C)(Oc1ccc(Cl)cc1)C(=O)N1CCN(CCn2cccn2)CC1` came in with an RP-LC retention time of 598 s.

Regarding `C=CCn1c(=O)c2ccccc2n(Cc2nc(-c3ccc4c(c3)OCO4)no2)c1=O`, the RP-LC retention time was determined as 998 s.

In turn, `O=C(NC1CC1)C1CCN(c2nc3ccc(-c4ccc(F)cc4)nc3s2)CC1` yielded an RP-LC retention time of 878 s.

`COc1ccc(NC(=O)N(C)CC2CCOCC2)cc1F` returned an RP-LC retention time of 682 s.

`COc1ccc(-c2ccnn2-c2ccc(SCc3ccc(F)cc3)nn2)cc1` displayed an RP-LC retention time of 738 s.

In the case of `O=C(Cn1nc2c(N3CCCCCC3)nccn2c1=O)Nc1ccc(F)cc1F`, the RP-LC retention time is 705 s.

As to `COc1ccc(-c2cn3c(CC(=O)NC4CCCCCC4)csc3n2)cc1OC`, the RP-LC retention time was 729 s.

On to `Cn1ccc(CN2CCN(Cc3ccccc3F)CC2)cc1=O`, for which the RP-LC retention time was found to be 554 s.

In the case of `Cc1nc2c(NC(=O)COc3ccccc3C)cccn2n1`, the RP-LC retention time came out at 916 s.

In turn, `CC1=C(c2cccc(Cl)c2)S(=O)(=O)N=C1N1CCCN(C(=O)NCC(C)C)CC1` displayed an RP-LC retention time of 814 s.

Compound `COc1ccccc1N1CCN(c2cc(SCC(=O)NCCC3=CCCCC3)ncn2)CC1` showed an RP-LC retention time of 1080 s.

Compound `Cc1ccc(NS(=O)(=O)c2n[nH]c(C)c2C(=O)NCc2ccc(F)cc2F)cc1` showed an RP-LC retention time of 821 s.

Take `O=C(Nc1nnc(-c2ccno2)o1)C1CCCN(S(=O)(=O)c2ccc(Cl)s2)C1` (centres undefined): the RP-LC retention time worked out at 757 s.

As for `CC(C)n1cnc2cc(CNC(=O)Cc3cccs3)ccc21`, the RP-LC retention time worked out at 600 s.

`COc1ccccc1-c1cc(C(N)=O)c2cccc(C)c2n1` registered an RP-LC retention time of 828 s.

Turning to `CCOC(=O)c1c(C)c(S(=O)(=O)N2CCN(c3ccccn3)CC2)c(C)n1C`, the RP-LC retention time was 690 s.

As for `O=C(OCc1cc(-c2cc3ccccc3o2)on1)c1ccccc1S(=O)(=O)C(F)F`, the RP-LC retention time came out at 1090 s.

`CC(=O)Oc1ccccc1C1=NN(C(C)=O)C(c2cccc(Br)c2)O1` (centres undefined) displayed an RP-LC retention time of 1040 s.

`COc1ccc(/C=C2\N=C(c3ccccc3)OC2=O)c(OCc2ccccc2)c1` returned an RP-LC retention time of 981 s.

`COc1ccc(NC(=O)Cn2c(C)cc(-c3nnc(C4CCC4)o3)c2C)cc1F`: the RP-LC retention time turned out to be 697 s.

In turn, `CCN1CCn2cc(S(=O)(=O)NCc3ccccc3F)cc2C1=O` showed an RP-LC retention time of 685 s.

With `CC(=O)N1c2ccc(S(=O)(=O)N3CCCCC3)cc2CC1C(=O)NCCCN1CCCCC1` (centres undefined), the RP-LC retention time came out at 577 s.

`COc1ccc(S(=O)(=O)N2CCc3nc(CNC(=O)C4CCC4)n(C)c3C2)cc1` yielded an RP-LC retention time of 628 s.

`O=C(c1cn2nc(Cl)ccc2n1)N1CCN(c2ccccc2F)CC1`: the RP-LC retention time was 836 s.

On to `Cn1nc(C(=O)N2CCCC2)c2c1CCN(C(=O)CCC(=O)NCCN1CCCCCC1)C2`, for which the RP-LC retention time was determined as 586 s.

`CCOc1cccc(C(=O)Nc2nc(-c3ccc(OC)c(Br)c3)cs2)c1` gave an RP-LC retention time of 1280 s.

The compound `CCn1c(=O)sc2cc(S(=O)(=O)N3CCC(C(=O)NCc4cccs4)CC3)ccc21` showed an RP-LC retention time of 832 s.

In turn, `CCc1noc2nc(CCC(=O)NCCOC)nc(N3CCCCC3)c12` displayed an RP-LC retention time of 724 s.
